In patent publication US8765772B2, “Purine derivatives for use in the treatment of allergic, inflammatory and infectious diseases” (GlaxoSmithKline LLC, priority 2008, dated 2014):

test system: TNF-α; assay: Induction of TNF-α using fresh human PBMCs; assay type: cell-based; conditions: PBMC, 24 hr incubation, relative to 2 μM resiquimod control, read-out: mean pEC50 for induction of TNF-α (converted)
Procedure: Assay for the Induction of Interferon-α and TNF-α using Fresh Human Peripheral Blood Mononuclear Cells (PBMCs)
Compounds were dissolved and serially diluted in DMSO to give 100× the required concentration range using a Biomek 2000. 1 ul of test compound was transferred into 96-well tissue culture plates using a Biomek FX. Each compound was assayed in duplicate for each donor. Each plate contained a dilution series of the TLR7/8 agonist resiquimod as standard and Column 11 contained 1 μl of 200 μM resiquimod (giving a 2 μM final concentration, used to define the approximate maximal response to resiquimod).
Blood samples from two human donors were collected into sodium heparin (10 U/ml). 25 ml volumes of whole blood were overlaid onto 15 mls Histopaque in Leucosep tubes which were centrifuged at 800 g for 20 min and the band at the plasma/histopaque interface carefully removed. The collected cells were centrifuged at 2500 rpm for 10 min and the pellet resuspended in 10 ml of media (RPMI 1640 (Low endotoxin) supplemented with 10% v/v foetal calf serum (FCS, low endotoxin) 100 U/ml penicillin G, 100 μg/ml streptomycin, 10 mM L-glutamine and 1× non-essential amino acids). A 1:20 dilution of the cells was prepared using trypan blue & the cells counted using a haemocytometer. The PBMCs were diluted to give a final concentration of 2×10^6/ml and 100 ul of this cells suspension was added to wells containing 1 μl of diluted test compound.
Incubation and Assays for Interferon-α and TNF-α
The cell preparations were incubated for 24 hr (37° C., 95% air, 5% CO2) after which a sample of the supernatant was removed using the Biomek FX and assayed for both IFN-α and TNF-α using the MSD (Mesoscale Discovery) electrochemiluminescence assay platform. The IFN-α assay was carried out similarly to that described above. The TNF-α assay was carried out as per kit instructions (Cat No K111BHB). Cytokine released was expressed as a percentage of the 2 μM resiquimod control (column 11). This percentage was plotted against compound concentration and the pEC50 for the response determined by non-linear least squares curve fitting. For the IFN-α responses generally a 4 parameter logistic model was selected. For the TNF responses where a clear maximum response was obtained (i.e. a well defined plateau in the response was observed) then a 4 parameter model was generally used. If the upper asymptote of the curve wasn't well defined then the curve fitting was generally constrained to a maximal response of 100% (i.e. to the response to 2 μM resiquimod) or to the response of the highest concentration tested if this was greater than the resiquimod response. Some curves were bell shaped for one or both cytokines and the cytokine data on the down slope of the bell shaped response (i.e. concentrations above those giving the maximal response) were generally excluded from the fit, usually with the exception of the concentration immediately above the peak response. Curve fitting thus concentrated on the up slope of the dose response curve.

EC50, ≥ 1000 nM:
CCC[C@H](C)Oc1nc(N)c2[nH]c(=O)n(CCCCCN3CCCCC3)c2n1 [Example 22, 6-Amino-2-{[(1S)-1-methylbutyl]oxy}-9-[5-(1-piperidinyl)pentyl]-7,9-dihydro-8H-purin-8-one]
CCC[C@H](C)Oc1nc(N)c2[nH]c(=O)n(CCCCCN3CCCCCC3)c2n1 [Example 23, 6-Amino-9-[5-(hexahydro-1H-azepin-1-yl)pentyl]-2-{[(1S)-1-methylbutyl]oxy}-7,9-dihydro-8H-purin-8-one]
CCC[C@H](C)Oc1nc(N)c2[nH]c(=O)n(CCCCN3CCCCCC3)c2n1 [Example 21, 6-Amino-9-[4-(hexahydro-1H-azepin-1-yl)butyl]-2-{[(1S)-1-methylbutyl]oxy}-7,9-dihydro-8H-purin-8-one]
CCCCOc1nc(N)c2[nH]c(=O)n(CCCCCCN3CCCC3)c2n1 [Example 13, 6-Amino-2-(butyloxy)-9-[6-(1-pyrrolidinyl)hexyl]-7,9-dihydro-8H-purin-8-one]
CCC[C@H](C)Oc1nc(N)c2[nH]c(=O)n(CCCCN3CCCCC3)c2n1 [Example 20, 6-Amino-2-{[(1S)-1-methylbutyl]oxy}-9-[4-(1-piperidinyl)butyl]-7,9-dihydro-8H-purin-8-one]
CCCCOc1nc(N)c2[nH]c(=O)n(CCCCCCN3CCCCCC3)c2n1 [Example 15, 6-Amino-2-(butyloxy)-9-[6-(hexahydro-1H-azepin-1-yl)hexyl]-7,9-dihydro-8H-purin-8-one]
